Test results: patent US11351185B2, “Use of isovalerylspiramycins as anti-cancer agents to inhibit metastasis” (priority 2020, dated 2022)
Entries after “also recorded” stand apart in the source; their conditions may differ.

System: LN229-luc tumors
Assay: Intracranial LN229-luc glioblastoma xenograft mouse model
Format: in vivo, NSG mice
Text: The inventors first assessed ISP I's anti-tumor activity in an intracranial mouse model (FIG. 11A). NSG mice were inoculated with 1×10^5 LN229-luc cells in the right-frontal cortex. After 7 days, intracranial tumor growth was confirmed via noninvasive in vivo bioluminescence imaging and mice were randomized into ISP I or DMSO (control) treatment groups.
Mice experiments were approved by the National Institute of Neurological Disorders and Stroke (NINDS) and National Cancer Institute (NCI) Animal Use and Care Committees. For intracranial xenografts establishment, NOD-Prkdc^scidII2rg^tmiWjl (NSG) mice (6-8 weeks old from the NCI-Frederick animal facility) were inoculated intracranially with 100,000 LN229-luc cells suspended in 2 μL Hank's Balanced Salt Solution (HBSS), a product of Crystalgen (Commack, N.Y. USA). After one week, luciferin signals were detected to confirm the survival of tumor cells in mice. The mice were assigned to the indicated groups according to the signal intensity, in order to keep the baseline balanced. ISP I was injected intraperitoneally daily at a dose of 66 mg/kg body weight for 24 days. The mice in control group were injected with the same volume of corn oil or saline. The viability of tumors was monitored every four days. […]

COC1C(O)CC(=O)OC(C)CC=CC=CC(OC2CCC(N(C)C)C(C)O2)C(C)CC(CC=O)C1OC1OC(C)C(OC2CC(C)(O)C(OC(=O)CC(C)C)C(C)O2)C(N(C)C)C1O (centres unmarked) [ISP I, 4″-isolvalerylspiramycin I]
tumor growth / burden (bioluminescence imaging) (66 mg/kg body weight i.p. every day): reduced LN229-luc tumor burden compared with the untreated group; also recorded: significantly reduced tumor growth
response in tumor-derived bioluminescence images (three mice, day 24, 66 mg/kg i.p. daily): complete response
